# Patent US20080293818A1, “Regulator of Physiological Function of Ghrelin and Use Thereof” (priority 2004, published 2008)
# Marks after values point to notes of the source that are not given here.
# Tests used:
# [1] = test system: anti-rat ghrelin [D1-D11] antiserum; assay: Cross-reactivity of ghrelin N-RIA; format: binding, rabbit; conditions: for cross-reactivity of N-RIA: relative to n-octanoyl ghrelin
# Experimental: (§1) RIAs specific for ghrelin were performed as previously described [D2]. Two polyclonal antibodies were raised in rabbits against the N-terminal (Gly^1-Lys^11 with O-n-octanoylation at Ser^3) and C-terminal (Gln^13-Arg^28) fragments of rat ghrelin. RIA incubation mixtures were composed of 100 μl of either standard ghrelin or an unknown sample, with 200 μl of antiserum diluted in RIA buffer (50 mM sodium phosphate buffer (pH 7.4), 0.5% BSA, 0.5% Triton-X100, 80 mM sodium chloride (NaCl), 25 mM disodium ethylenediamine-tetraacetate (EDTA 2-Na) and 0.05% sodium azide (NaN3)) containing 0.5% normal rabbit serum. Anti-rat ghrelin [D1-D11] and anti-rat ghrelin [D13-D28] antisera were used at final dilutions of 1/3,000,000 and 1/20,000, respectively. After a 12-hour incubation at 4° C., 100 μl of ^125I-labeled ligand (20,000 cpm) was added for an additional 36-hour incubation. Then, 100 μl of anti-rabbit goat antibody was added. After incubation for 24 hours at 4° C., free and bound tracers were separated by centrifugation at 3,000 rpm for 30 min. Pellet radioactivity was quantified in a gamma counter (ARC-600, Aloka, Tokyo). All assays were performed in duplicate at 4° C.
# The cross-reactivity of N-RIA to n-decanoyl ghrelin and that to n-hexanoyl ghrelin are 20% and 0.3%, respectively. Anti-rat ghrelin [D13-D28] antiserum equally recognized both des-acyl and all acylated forms of ghrelin peptide. In the following sections, the RIA system using the antiserum against the N-terminal fragment of rat ghrelin [D1-D11] is termed N-RIA, while the RIA system using antiserum against the C-terminal fragment [D13-D28] is termed C-RIA.
# [2] = test system: n-heptanoyl ghrelin in the stomach; assay: Molecular forms of stomach ghrelin after glyceryl triheptanoate ingestion (HPLC, C-RIA and N-RIA); format: in vivo, mouse; conditions: mice, HPLC, C-RIA / N-RIA
# Experimental: (§2) Male C57BL/6J mice weighing 20-25 g (10-12 week old) were maintained under controlled temperature (21-23° C.) and light conditions (light on 0700-1900) with ad libitum access to food and water. Medium-chain fatty acids (MCFAs), i.e., n-hexanoic, n-octanoic, and n-lauric acids (Sigma-Aldrich Japan Co., Ltd., Tokyo), were dissolved in water at 5 mg/ml. n-Palmitic acid, a common long-chain fatty acid (LCFA) (Sigma-Aldrich Japan Co., Ltd., Tokyo), was mixed into standard laboratory chow (CLEA Rodent Diet CE-2, CLEA Japan, Osaka) at a concentration of 1% (w/w), to equilibrate the total intake amount of this lipid to the other medium-chain fatty acids contained in the food. Medium- and long-chain triglycerides (MCTs and LCTs), i.e., glyceryl trihexanoate, trioctanoate, tridecanoate and tripalmitates (Wako Pure Chemical, Osaka, Japan), were mixed with standard laboratory chow at a concentration of 5% (w/w). Whole stomach tissues from treated mice were collected at the indicated times (0-14 days) after ingesting the free fatty acid- or triacylglyceride-containing food. Fresh tissue samples from these mice were diced and boiled for 5 minutes in a 10-fold volume of water. The tissue-containing solution was then adjusted to 1M acetic acid after cooling and then homogenized with a Polytron mixer. The supernatant, obtained after centrifugation at 15,000 rpm for 15 minutes, was then lyophilized. The lyophilized material was dissolved in RIA buffer and subjected to ghrelin C- and N-RIA. To elucidate the forms of ghrelin peptides modified by different acyl groups, extracted stomach peptides were collected using a Sep-Pak Plus C18 cartridge (Waters, Milford, Mass.) and subjected to C18 RP-HPLC (Symmetry 300, 3.9×150 mm, Waters) with a linear gradient from 10 to 60% CH3CN/0.1% TFA at a flow rate of 1.0 ml/minute for 40 minutes. Five hundred micro-litter fractions were collected. Ghrelin peptide content in each fraction was measured by ghrelin C- and N-RIA as described above. Degradation of ghrelin was not observed during the extraction.
# Male C57BL/6J mice weighing 20-25 g (10-12 week old) were maintained under controlled temperature (21-23° C.) and light conditions (light on 0700-1900) with ad libitum access to food and water. Glyceryl triheptanoate (Fluka Chemie GmbH, Buchs, Switzerland) was mixed with standard laboratory chow at a concentration of 5% (w/w). Four days after mice were fed glyceryl triheptanoate-containing food, stomachs (total 1,000 mg) were recovered from mice (n=7). The total consumption of glyceryl triheptanoate-containing food was approximately 13.5 g/mouse, amounting to 675 mg total glyceryl triheptanoate ingested by each mouse. Stomachs were minced and boiled for 5 minutes in 5× volumes of water to inactivate intrinsic proteases. […]
# [3] = test system: acyl-modified and total ghrelin in the stomach; assay: Stomach ghrelin content after medium- to long-chain triacylglycerol ingestion (N-RIA / C-RIA); format: in vivo, mouse; conditions: mice, 5% (w/w) in chow, two weeks, N-RIA
# Experimental: as §1, §2
# Orally ingested triacylglycerols are intraluminally hydrolyzed and absorbed through the gastro-intestinal mucosa as free fatty acids or monoglycerides. Thus, ingested triacylglycerols may serve as a source of free fatty acids [D26]. To examine if ingested triacylglycerols are used for acyl-modification of ghrelin, mice were fed chow mixed with 5% (w/w) glyceryl trihexanoate (C6), trioctanoate (C8), tridecanoate (C10), and tripalmintate (C16). After two weeks, gastric peptides were extracted. Ghrelin concentration in the stomach of these mice and in that from mice fed standard laboratory chow (Control) (n=8) are shown. The content of acyl-modified and total ghrelins was measured by N- and C-RIA. […]
# [4] = test system: des-acyl and acyl-modified ghrelin peptides in the stomach; assay: Molecular forms of stomach ghrelin peptide after ingestion (HPLC fractionation, C-RIA); format: in vivo, mouse
# Experimental: as §2
# To clarify what molecular forms of ghrelin peptide are present after the ingestion of triacylglycerol (triacylglycerin), peptide extracts from stomachs of mouse fed chow containing glyceryl trihexanoate (C6:0-MCT), glyceryl trioctanoate (C8:0-MCT), glyceryl tridecanoate (C10:0-MCT), and standard laboratory chow (Control) were fractionated by HPLC, and measured for ghrelin immunoreactivity by C-RIA. […] Based on the observed retention times of synthetic acyl-modified ghrelin peptides, peaks a, d, h, and k corresponded to des-acyl ghrelin, peaks b, f, i, and 1 corresponded to n-octanoyl (C8:0) ghrelin, and peaks c, g, j, and m corresponded to n-decenoyl (10:1) ghrelin.
# Male C57BL/6J mice were fed chow mixed with 5% (w/w) glyceryl trihexanoate (C6:0-MCT), glyceryl trioctanoate (C8:0-MCT), or glyceryl tri-decanoate (C10:0-MCT) for 14 days. The concentrations of des-acyl ghrelin, n-hexanoyl ghrelin (C6:0-ghrelin), n-octanoyl ghrelin (C8:0-ghrelin), n-decenoyl ghrelin (C10:1-ghrelin), and n-decanoyl ghrelin (C10:0-ghrelin) from stomach samples (from 0.2 mg wet weight) were measured by ghrelin C-RIA after HPLC fractionation.
# [5] = test system: acyl-modified and total ghrelin in the stomach; assay: Time course of acyl-modified ghrelin production after glyceryl trioctanoate ingestion; format: in vivo, mouse
# Experimental: To examine time-dependent changes in the production of n-octanoyl ghrelin after the ingestion of a glyceryl trioctanoate, mice were fed with glyceryl trioctanoate-containing chow (5%, w/w) after a 12-hour fasting period. The concentrations of acyl-modified and total ghrelins in the stomach were measured at the indicated times.
# A represents acyl-modified ghrelin content measured by ghrelin N-RIA. B represents total ghrelin content measured by ghrelin C-RIA. After 12-hour fasting, glyceryl trioctanoate (5% w/w)-containing chow was given to mice beginning at the time (0 hour) indicated by the arrow. Stomach samples were isolated from control mice fed standard laboratory chow (closed circles) and mice fed glyceryl trioctanoate (open circles) at the indicated times. Each point represents mean ±S.D. (n=8). Asterisks indicate statistical significance. *, p<0.05; **, p<0.01 and ***, p<0.001 vs. control.
# ghrelin mRNA = assay: Northern blot of stomach ghrelin mRNA after glyceryl trioctanoate ingestion; format: in vivo, mouse; conditions: after 4 days of ingestion
# Text: Total RNAs were extracted from the stomachs of male C57BL/6J mice (12 week old) by acid guanidium thiocyanate-phenol chloroform extraction [D24] using TRIzol reagent (Invitrogen, Carlsbad Calif., USA). Two μg of total RNA was electrophoresed through a 1% agarose gel containing formaldehyde, and then transferred to a Zeta-Probe blotting membrane (Bio-Rad Laboratories, Hercules, Calif.). Membranes were hybridized with a ^32P-labeled rat ghrelin cDNA probe in hybridization buffer containing 50% formamide, 5×SSPE, 5×Denhardt's solution, 1% sodium dodecyl sulfate (SDS), and 100 μg/ml denatured salmon sperm. After an overnight hybridization at 37° C., membranes were washed and exposed to BioMax-MS film (Eastman Kodak, Rochester, N.Y.) for 12 hours at −80° C. Ghrelin mRNA levels were quantified using a Bioimaging analyzer BAS 2000 (Fujix, Tokyo, Japan).
# To examine if the ingestion of MCTs affects the expression of ghrelin mRNA, mouse stomach RNA was quantitated by Northern blot analysis after 4 days of glyceryl trioctanoate ingestion.
# Each lane contained 2 μg of total RNA. The lower panel indicates 28S and 18S ribosomal RNAs internal controls.
# [6] = mice, 5% (w/w) in chow, 14 days, from 0.2 mg wet weight, C-RIA after HPLC, mean ± S.D.
compound,measurement,setting,value
n-hexanoyl ghrelin,cross-reactivity of N-RIA,[1],0.3%
CCCCCCC(=O)O [n-heptanoic acid],appearance of peak b / d (n-heptanoyl ghrelin) immunoreactivity in stomach extracts,[2],also detected
"des-acyl ghrelin: ghrelin peptide in which the position-3 amino acid is not acylated (GSSFLSPEHQRVQQRKESKKPPAKLQPR; Ghrelin-28 non-acylated; UniProt Q9UBU3 24-51, looked up)",recognition by anti-rat ghrelin [D1-D11] antiserum,[1],did not recognize
n-decanoyl ghrelin,cross-reactivity of N-RIA,[1],20%
CCCCCCCC(=O)OCC(COC(=O)CCCCCCC)OC(=O)CCCCCCC [glyceryl trioctanoate],production of acyl-modified ghrelin in stomach tissue,[3],stimulated production
same,C6:0-ghrelin (n-hexanoyl ghrelin) concentration in the stomach,[4]; [6],12.4 ± 4.9
same,C8:0-ghrelin (n-octanoyl ghrelin) concentration in the stomach,[4]; [6],774.0 ± 89.1^c)
same,C10:0-ghrelin (n-decanoyl ghrelin) concentration in the stomach,[4]; [6],8.1 ± 3.1
same,Des-acyl ghrelin concentration in the stomach,[4]; [6],236.6 ± 21.1
same,C10:1-ghrelin (n-decenoyl ghrelin) concentration in the stomach,"[4]; mice, 5% (w/w) in chow, 14 days, from 0.2 mg wet weight, C-RIA after HPLC, mean ± S.D., fraction holds unidentified ghrelin molecules too",51.5 ± 13.2^a)
same,stomach ghrelin modified by the acyl group corresponding to the ingested lipid,"[4]; mice, HPLC peak, C-RIA",stimulated the production of n-octanoyl ghrelin
same,molar ratio of n-octanoyl/total ghrelin,[4]; stomach of treated mice,over 60%
same,stomach concentration of acyl-modified ghrelin vs normal chow,"[5]; 14 days after ingestion, N-RIA",remained significantly higher
same,onset of increase of acyl-modified ghrelin content in the stomach,"[5]; mice, 5% w/w chow after 12-hour fasting, N-RIA",increased three hours after the ingestion
same,time to maximal levels of n-octanoyl ghrelin in the stomach after starting ingestion,"[5]; mice, 5% w/w chow continuously supplied",24 h
same,stomach content of total ghrelin,"[5]; time course, C-RIA",no significant changes
same,expression level of gastric ghrelin mRNA,ghrelin mRNA,did not change
